Test results from patent publication US7569239B2, “Antioxidative compositions” (priority 2002, dated 2009).

Test system: colitis (colon growth caused by inflammation)
Assay: DNBS-induced colitis in rats (animal model for inflammatory bowel disease)
Type: in vivo, male Spregue-Dawley rats
Details: oral once a day for 7 days, rat
Procedure: In one experiment, male Spregue-Dawley rats (150-180 gram; Charles River Lab, Boston, Mass.) were kept in filter-topped cages with free access to food and water, and housed in a positive pressure room with controlled temperature and photoperiod during studies. As an animal model for inflammatory bowel disease (e.g., Crohn's disease), colitis (colon growth caused by inflammation) was induced by intracolonic instillation of 25 mg of a hapten reagent, 2,4-dinitrobenzenesulfonic acid (TCI, Japan), in 0.5 ml of 30% vol/vol ethanol. Each rat was first anaesthetized with […]/ethanol was injected into the colon, 8 cm proximal to the anus, with a PE 50 cannula. 2 ml of air was then gently injected through the cannula to ensure that the solution remained in the colon. The rat was then kept in a vertical position for 30 second and returned to its cage. By using the same procedures, rats in the blank-control group received 0.5 ml of 30% ethanol. See Hogaboam, et al., Eur. J. Pharmacol. (1996) 309:261-269. […] Each daily dose contained 3.125 mg to 25 mg of quercetin aglycon for each kilogram of body weight. The weight of each rat was monitored every 24 hours. […] Before removal of each colon, the presence or absence of adhesions between the colon and other organs were recorded upon opening the abdominal cavity. The colon-to-body weight ratio was then calculated for each animal. […]

O=c1c(O)c(-c2ccc(O)c(O)c2)oc2cc(O)cc(O)c12 [quercetin aglycon]
inhibition of colon growth (colon-to-body weight ratio) (3.125 mg/kg quercetin aglycon): failed to do so | inhibition of colon growth (colon-to-body weight ratio) (25 mg/kg quercetin aglycon): inhibited colon growth
